Source: US20100266691A1, “Agents and Methods to Stimulate Bone Healing” (BATTELLE MEMORIAL INSTITUTE, priority 2009, published 2010)

How the values were obtained:
[1] = tested on: Mouse MC3T3-E1 pre-osteoblastic cells; assay: pre-osteoblast chemotaxis trans-well assay; type: cell-based; conditions: for chemotactic effect of LPA in the presence of inhibitor: inhibitor added together with LPA
Experimental: Mouse MC3T3-E1 pre-osteoblastic cells were seeded into the upper wells of opaque trans-well chambers that had 8.0-micron pores. LPA was added to the growth medium in the lower chamber. The number of cells that migrated through the pores and attached to the underside of the microporous membrane served as a measure of chemotaxis (chemically directed cell migration). Cells were fluorescently labeled with calcein to allow visualization on the undersides of the opaque chambers. Utilizing this assay it was determined that LPA elicited a 6.5 fold increase in pre-osteoblast when compared to cells under control conditions (growth medium in the absence of LPA).

[2] = tested on: MC3T3-E1 cells; assay: global gene expression profiling (Affymetrix mouse whole genome microarrays); type: cell-based; conditions: LPA 1.0 μM
Experimental: LPA also modulates the expression of a large set of pre-osteoblast genes linked to development (FIG. 2). MC3T3-E1 cells were grown in the presence or absence of a physiological level of LPA (1.0 μM). After growth of the cells, total RNA was isolated for use in global gene expression profiling. Gene expression was measured utilizing Affymetrix mouse whole genome microarrays. Data were analyzed using a suite of bioinformatics software. […] As shown, genes involved in cell development are the most statistically significant group affected by LPA.

[3] = tested on: Mouse MLO-Y4 osteocyte-like cells; assay: osteocyte dendrite outgrowth trans-well assay; type: cell-based
Experimental: Data are normalized to untreated control cells.
Among the effects of LPA on pre-osteoblasts is the induction of membrane extensions that resemble osteocyte dendrites. An assay was developed to study the ability of LPA to stimulate the outgrowth of dendritic processes from osteocytes in vitro, FIG. 3. Mouse MLO-Y4 osteocyte-like cells were seeded in the upper wells of opaque trans-well chambers having 1.0-micron pores which prevent the passage of whole cells but allow penetration by membrane extensions. Cells were fluorescently labeled with calcein to allow visualization of dendrites that were extended onto the undersides of the opaque chambers. It was determined that the presence of LPA in the lower chamber lead to a 7-fold increase in osteocyte dendrite outgrowth.
It is postulated that LPA enhances dendrite outgrowth in vivo, which can re-establish the osteocyte mechanosensory network during the regeneration of damaged bone.

[4] = tested on: drill-hole defects in the cortex of rat femurs; assay: rat femur drill-hole defect healing with PLGA implants (microCT); type: in vivo; conditions: PLGA+12.5 μg LPA vs PLGA+2.0 μg rhBMP2; six weeks post-treatment
From the text: Defect regions (arrows) are enlarged on the right; dotted lines depict the original defect boarders.
The inventor has shown, using rat models, that LPA enhances skeletal regeneration in vivo. The bone growth stimulatory effects of LPA were compared to those of bone morphogenetic protein 2 (BMP-2), which is an FDA approved osteoinductive additive to bone implants. Referring to FIG. 4, drill-hole defects (3-mm diameter) were introduced into the cortex of rat femurs. Implants were fabricated utilizing poly(DL-lactic-co-glycolic acid) copolymers) (PLGA). The femurs were then implanted with either LPA or a therapeutic amount (2 μg) of BMP-2 and were compared to a non-treated control. Bone healing was measured as the rate of closure of the defect as visualized in living animals by micro-computed tomography (microTC). Implants were designed as follows: PLGA alone; PLGA+12.5 μg LPA; PLGA+2.0 μg rhBMP2.
One preferred combination of the invention is LPA and BMP-2. Utilizing a rat model, the affects of LPA and LPA with BMP-2 were studied. Rat femurs were drilled to introduce a defect as set forth for FIG. 4. Implants were prepared as described above with the addition of an implant having PLGA+2.0 μg rhBMP2+12.5 μg LPA. Each corresponding drill drill-hole was implanted with: A) nothing (control); B) LPA; C) BMP-2 or D) LPA+BMP-2.

| Compound | chemotactic effect of LPA in the presence of inhibitor [1] | increase in pre-osteoblast chemotaxis compared to cells under control conditions ([1]; LPA in lower chamber, 8.0-micron pores, control = growth medium in the absence of LPA) | number of genes regulated in LPA-treated cells [2] | increase in osteocyte dendrite outgrowth ([3]; LPA in lower chamber, 1.0-micron pores, normalized to untreated control cells) | stimulation of dendritogenesis ([3]; each concentration tested) | bone healing (closure of the defect) compared with BMP-2 [4] |
| --- | --- | --- | --- | --- | --- | --- |
| Cc1noc(-c2ccc(CSCCC(=O)O)cc2)c1NC(=O)OC(C)c1ccccc1Cl (stereo not shown) [Ki16425] | decreased chemotactic effect | – | – | – | – | – |
| CCCCCCCC/C=C\CCCCCCCC(=O)OC[C@@H](O)COP(=O)([O-])O.[Na+] [LPA, lysophosphatidic acid] | – | 6.5 fold | 513 genes | 7 fold | significantly stimulated dendritogenesis | stimulatory properties of LPA exceed those of BMP-2 |
| pertussis toxin | decreased chemotactic effect | – | – | – | – | – |
